# From patent US12396948B2, “Pharmaceutical compositions for the treatment of ophthalmic conditions” (Rhodes Technologies, priority 2017, dated 2025)
# Marks after values point to notes of the source that are not given here.
# Legend:
# Type in all cases: physicochemical
# [1] = Assay/impurities of AE14B trial batch #1 (Examples 17 and 19); conditions: API as dispensed
# [2] = AE14B trial batch #3 assay/impurities during process (Examples 22 and 23)
# [3] = Forced degradation of API, drug product emulsion and placebo (Examples 30 and 32)
# Procedure: In this example, a forced degradation study was performed on the API, drug product emulsion, and a placebo. Only w/w % impurities are presented.
# In this example, an additional forced degradation study was performed. Harsh conditions for oxidation (H2O2 concentration increased from 1% to 3%, exposure increased from 30 min to 2 hr) and conditions for photolytic degradation (exposure decreased from 24 hr to 40 min) were used in an additional forced degradation study.
# [4] = Chemical analysis of AE10C Trial #1 in-process samples and finished product (Example 36); conditions: Dronabinol AE10C Formulation, Trial #1 samples
# [5] = Oxidation 1% H2O2 0.5 hr, 1st study
# [6] = Oxidation 3% H2O2 2 hr, 2nd study
structure (smiles),measurement,setting,value
CCCCCc1cc(O)c2c(c1)OC(C)(C)[C@@H]1CCC(C)=C[C@@H]21 [API],Impurity CBN,[1],0.18 % Area
same,THC % Area,[1],99.84 % Area
same,Total impurities,[1],0.2 % Area
same,THC Assay,[1]; calculated using 48.4% based on the certificate of analysis,96.63* % LC
same,% Area (THC from Imp),[2]; API Sample,99.6 % Area
same,% Area of Impurities: CBN,[2]; API Sample,0.18 % Area
same,% Area of Impurities: RRT 0.46,[2]; API Sample,<0.1 % Area
same,% Area of Impurities: RRT 0.93,[2]; API Sample,0.18 % Area
same,% Area of Impurities: Total,[2]; API Sample,0.4 % Area
same,% w/w of Impurities: CBN,[2]; API Sample,0.15 % w/w
same,% w/w of Impurities: RRT 0.46,[2]; API Sample,<0.1 % w/w
same,% w/w of Impurities: RRT 0.93,[2]; API Sample,0.15 % w/w
same,% w/w of Impurities: Total,[2]; API Sample,0.3 % w/w
same,API % w/w,[2]; API Sample,38.29 % w/w
same,Assay % LC,[2]; API Sample,79.12 % LC
same,Conc.,[2]; API Sample,38.29 % w/w
same,Impurity CBN,[2]; API Sample,0.18 % Area
same,Impurity RRT 0.93,[2]; API Sample,0.18 % Area
same,Osmolarity (mOsm/L),[2]; API Sample,228 mOsm/L
same,Total impurities,[2]; API Sample,0.4 % Area
same,pH,[2]; API Sample,6.60
same,Osmolarity,[2]; API Sample column,228 mOsm/L
same,pH,[2]; API Sample column,6.60
same,total impurities excluding late eluting excipient impurities (RRT 1.22 and later),[2]; Batch #3,0.4 % area
same,API % w/w,[2]; Repeated API Sample,44.2 % w/w
same,Assay % LC,[2]; Repeated API Sample,91.29 % LC
same,% Area,"[3]; Acid 24 hr, 1st study",96.0 % Area
same,% w/w Impurities CBN,"[3]; Acid 24 hr, 1st study",1.54 % w/w
same,% w/w Impurities RRT 0.30,"[3]; Acid 24 hr, 1st study",0.08 % w/w
same,% w/w Impurities RRT 0.40,"[3]; Acid 24 hr, 1st study",0.71 % w/w
same,% w/w Impurities RRT 0.46,"[3]; Acid 24 hr, 1st study",0.22 % w/w
same,% w/w Impurities RRT 0.49,"[3]; Acid 24 hr, 1st study",0.37 % w/w
same,% w/w Impurities RRT 0.56,"[3]; Acid 24 hr, 1st study",0.18 % w/w
same,% w/w Impurities RRT 0.62,"[3]; Acid 24 hr, 1st study",0.37 % w/w
same,% w/w Impurities Total,"[3]; Acid 24 hr, 1st study",3.5 % w/w
same,Assay % LC,"[3]; Acid 24 hr, 1st study",83.6 % LC
same,% Area,"[3]; Base 24 hr, 1st study",95.3 % Area
same,% w/w Impurities CBN,"[3]; Base 24 hr, 1st study",1.19 % w/w
same,% w/w Impurities RRT 0.30,"[3]; Base 24 hr, 1st study",0.13 % w/w
same,% w/w Impurities RRT 0.40,"[3]; Base 24 hr, 1st study",1.72 % w/w
same,% w/w Impurities RRT 0.46,"[3]; Base 24 hr, 1st study",0.30 % w/w
same,% w/w Impurities RRT 0.56,"[3]; Base 24 hr, 1st study",0.42 % w/w
same,% w/w Impurities RRT 0.62,"[3]; Base 24 hr, 1st study",0.31 % w/w
same,% w/w Impurities Total,"[3]; Base 24 hr, 1st study",4.1 % w/w
same,Assay % LC,"[3]; Base 24 hr, 1st study",82.9 % LC
same,% Area,"[3]; Control, 1st study",97.5 % Area
same,% w/w Impurities CBD,"[3]; Control, 1st study",0.52 % w/w
same,% w/w Impurities CBN,"[3]; Control, 1st study",1.41 % w/w
same,% w/w Impurities RRT 0.46,"[3]; Control, 1st study",0.28 % w/w
same,% w/w Impurities Total,"[3]; Control, 1st study",2.2 % w/w
same,Assay % LC,"[3]; Control, 1st study",85.8 % LC
same,% Area,"[3]; Control, 2nd study",97.4 % Area
same,% w/w Impurities CBD,"[3]; Control, 2nd study",0.58 % w/w
same,% w/w Impurities CBN,"[3]; Control, 2nd study",1.41 % w/w
same,% w/w Impurities RRT 0.46,"[3]; Control, 2nd study",0.26 % w/w
same,% w/w Impurities Total,"[3]; Control, 2nd study",2.3 % w/w
same,Assay % LC,"[3]; Control, 2nd study",85.8 % LC
same,% Area,[3]; [5],97.5 % Area
same,% w/w Impurities CBN,[3]; [5],1.27 % w/w
same,% w/w Impurities RRT 0.46,[3]; [5],0.25 % w/w
same,% w/w Impurities RRT 0.62,[3]; [5],0.49 % w/w
same,% w/w Impurities Total,[3]; [5],2.0 % w/w
same,Assay % LC,[3]; [5],78.6 % LC
same,% Area,[3]; [6],97.0 % Area
same,% w/w Impurities CBD,[3]; [6],0.62 % w/w
same,% w/w Impurities CBN,[3]; [6],0.79 % w/w
same,% w/w Impurities RRT 0.46,[3]; [6],0.29 % w/w
same,% w/w Impurities RRT 0.56,[3]; [6],0.20 % w/w
same,% w/w Impurities RRT 0.93,[3]; [6],0.65 % w/w
same,% w/w Impurities Total,[3]; [6],2.6 % w/w
same,Assay % LC,[3]; [6],83.7 % LC
same,% Area,"[3]; Photolytic 40 min, 2nd study",79.1 % Area
same,% w/w Impurities CBD,"[3]; Photolytic 40 min, 2nd study",8.20 % w/w
same,% w/w Impurities CBN,"[3]; Photolytic 40 min, 2nd study",1.00 % w/w
same,% w/w Impurities RRT 0.30,"[3]; Photolytic 40 min, 2nd study",0.07 % w/w
same,% w/w Impurities RRT 0.44,"[3]; Photolytic 40 min, 2nd study",0.68 % w/w
same,% w/w Impurities RRT 0.46,"[3]; Photolytic 40 min, 2nd study",1.35 % w/w
same,% w/w Impurities RRT 0.52,"[3]; Photolytic 40 min, 2nd study",1.56 % w/w
same,% w/w Impurities RRT 0.56,"[3]; Photolytic 40 min, 2nd study",0.17 % w/w
same,% w/w Impurities RRT 0.70,"[3]; Photolytic 40 min, 2nd study",0.62 % w/w
same,% w/w Impurities RRT 0.82,"[3]; Photolytic 40 min, 2nd study",0.22 % w/w
same,% w/w Impurities RRT 1.35,"[3]; Photolytic 40 min, 2nd study",0.21 % w/w
same,% w/w Impurities RRT 1.40,"[3]; Photolytic 40 min, 2nd study",0.21 % w/w
same,% w/w Impurities RRT 1.45,"[3]; Photolytic 40 min, 2nd study",0.52 % w/w
same,% w/w Impurities RRT 1.48,"[3]; Photolytic 40 min, 2nd study",0.40 % w/w
same,% w/w Impurities Total,"[3]; Photolytic 40 min, 2nd study",15.2 % w/w
same,Assay % LC,"[3]; Photolytic 40 min, 2nd study",57.5 % LC
same,% Area,"[3]; Photolytic 24 hr, 1st study",11.3 % Area
same,% w/w Impurities CBN,"[3]; Photolytic 24 hr, 1st study",6.75 % w/w
same,% w/w Impurities RRT 0.39,"[3]; Photolytic 24 hr, 1st study",0.79 % w/w
same,% w/w Impurities RRT 0.40,"[3]; Photolytic 24 hr, 1st study",0.66 % w/w
same,% w/w Impurities RRT 0.46,"[3]; Photolytic 24 hr, 1st study",4.05 % w/w
same,% w/w Impurities RRT 0.49,"[3]; Photolytic 24 hr, 1st study",2.55 % w/w
same,% w/w Impurities RRT 0.62,"[3]; Photolytic 24 hr, 1st study",1.45 % w/w
same,% w/w Impurities RRT 0.75,"[3]; Photolytic 24 hr, 1st study",0.25 % w/w
same,% w/w Impurities RRT 0.82,"[3]; Photolytic 24 hr, 1st study",0.49 % w/w
same,% w/w Impurities RRT 1.19,"[3]; Photolytic 24 hr, 1st study",0.83 % w/w
same,% w/w Impurities RRT 1.45,"[3]; Photolytic 24 hr, 1st study",0.07 % w/w
same,% w/w Impurities Total,"[3]; Photolytic 24 hr, 1st study",17.9 % w/w
same,Assay % LC,"[3]; Photolytic 24 hr, 1st study",2.3 % LC
same,Impurity Change CBD,[3]; Stress condition Acid,2 (2: Increase in API)
same,Impurity Change RRT 0.40,[3]; Stress condition Acid,2 (2: Increase in API)
same,Impurity Change RRT 0.46,[3]; Stress condition Acid,— (Blank cell: no effect)
same,Impurity Change RRT 0.62,[3]; Stress condition Acid,2 (2: Increase in API)
same,Impurity Change RRT 0.93,[3]; Stress condition Acid,— (Blank cell: no effect)
same,Impurity Change CBD,[3]; Stress condition Base,2 (2: Increase in API)
same,Impurity Change CBN,[3]; Stress condition Base,— (Blank cell: no effect)
same,Impurity Change RRT 0.40,[3]; Stress condition Base,2 (2: Increase in API)
same,Impurity Change RRT 0.46,[3]; Stress condition Base,— (Blank cell: no effect)
same,Impurity Change RRT 0.62,[3]; Stress condition Base,2 (2: Increase in API)
same,Impurity Change RRT 0.93,[3]; Stress condition Base,— (Blank cell: no effect)
same,Impurity Change CBD,[3]; Stress condition Oxidation,2 (2: Increase in API)
same,Impurity Change CBN,[3]; Stress condition Oxidation,— (Blank cell: no effect)
same,Impurity Change RRT 0.40,[3]; Stress condition Oxidation,— (Blank cell: no effect)
same,Impurity Change RRT 0.46,[3]; Stress condition Oxidation,— (Blank cell: no effect)
same,Impurity Change RRT 0.62,[3]; Stress condition Oxidation,2 (2: Increase in API)
same,Impurity Change RRT 0.93,[3]; Stress condition Oxidation,— (Blank cell: no effect)
same,Impurity Change CBD,[3]; Stress condition Photolytic,2 (2: Increase in API)
same,Impurity Change CBN,[3]; Stress condition Photolytic,2 (2: Increase in API)
same,Impurity Change RRT 0.40,[3]; Stress condition Photolytic,2 (2: Increase in API)
same,Impurity Change RRT 0.46,[3]; Stress condition Photolytic,2 (2: Increase in API)
same,Impurity Change RRT 0.62,[3]; Stress condition Photolytic,2 (2: Increase in API)
same,Impurity Change CBD,[3]; Stress condition Thermal,2 (2: Increase in API)
same,Impurity Change CBN,[3]; Stress condition Thermal,2 (2: Increase in API)
same,Impurity Change RRT 0.46,[3]; Stress condition Thermal,2 (2: Increase in API)
same,% Area,"[3]; Thermal 24 hr, 1st study",77.5 % Area
same,% w/w Impurities CBD,"[3]; Thermal 24 hr, 1st study",2.43 % w/w
same,% w/w Impurities CBN,"[3]; Thermal 24 hr, 1st study",9.03 % w/w
same,% w/w Impurities RRT 0.30,"[3]; Thermal 24 hr, 1st study",0.15 % w/w
same,% w/w Impurities RRT 0.44,"[3]; Thermal 24 hr, 1st study",0.47 % w/w
same,% w/w Impurities RRT 0.46,"[3]; Thermal 24 hr, 1st study",0.56 % w/w
same,% w/w Impurities RRT 0.52,"[3]; Thermal 24 hr, 1st study",0.40 % w/w
same,% w/w Impurities RRT 0.56,"[3]; Thermal 24 hr, 1st study",0.22 % w/w
same,% w/w Impurities RRT 0.70,"[3]; Thermal 24 hr, 1st study",0.29 % w/w
same,% w/w Impurities RRT 1.19,"[3]; Thermal 24 hr, 1st study",0.54 % w/w
same,% w/w Impurities RRT 1.27,"[3]; Thermal 24 hr, 1st study",0.26 % w/w
same,% w/w Impurities RRT 1.40,"[3]; Thermal 24 hr, 1st study",0.50 % w/w
same,% w/w Impurities RRT 1.45,"[3]; Thermal 24 hr, 1st study",0.34 % w/w
same,% w/w Impurities RRT 1.48,"[3]; Thermal 24 hr, 1st study",0.14 % w/w
same,% w/w Impurities Total,"[3]; Thermal 24 hr, 1st study",15.3 % w/w
same,Assay % LC,"[3]; Thermal 24 hr, 1st study",52.8 % LC
same,Assay decrease,"[3]; second study, photolytic degradation, 40 min light exposure",~30%
same,Assay % LC,[4],87.2 % LC
same,Impurity (% Area) CBD,[4],0.62 % Area
same,Impurity (% Area) RRT 0.46,[4],0.19 % Area
same,Impurity (% Area) RRT 0.70,[4],0.52 % Area
same,Impurity (% Area) Total,[4],1.3 % Area
same,Impurity (% w/w) CBN,[4],0.55 % w/w
same,Impurity (% w/w) RRT 0.46,[4],0.17 % w/w
same,Impurity (% w/w) RRT 0.93,[4],0.46 % w/w
same,Impurity (% w/w) Total,[4],1.2 % w/w
